EC50 and IC50 data for six compounds are collected here from patent US11401278B2, “Macrocyclic indole derivatives” (The Broad Institute, Inc., priority 2017, dated 2022).

For orientation: EC50 means the concentration at which the effect is half-maximal. A low value points to an effect from little substance. Broadly, the IC50 is the concentration that gives 50% inhibition.

The test system of series [1] is SUDHL10. As to the kind of experiment: Induction of caspase-3/7 activity (Assay 4), SUDHL10. It is filed as cell-based. The settings on record: caspase-3/7 induction, median. As for the experimental part:
(§1) Cellular Assays Assay 4 Induction of Caspase-3/7 Activity Upon Treatment of Cells with Selected Compounds
(§2) The BH3-domain of MCL-1 sequesters pro-apoptotic proteins, thereby inhibiting apoptosis. In contrast, MCL-1 inhibitors are expected to antagonize this effect leading to an increase in apoptosis, which can be determined by measuring the activity of caspase-3/7.
(§3) The activity of caspase-3/7 was determined in DLBCL (Diffuse large B-cell lymphoma) cell lines (SUDHL5 and SUDHL10) upon treatment with different compounds, using the Caspase-Glo® 3/7 reagent from Promega (G8092).
(§4) Rim wells were excluded. The cells were incubated for 3 hours in a humidified incubator at 37° C.
(§5) For the evaluation of the results, the background measured with “medium-only” was subtracted from all other values. […] The Bella DRC Master Sheet was used to calculate EC50s, with fixed C0=1 and CI=plateau/max induction for the reference compound.

The test system of series [2] is SUDHL5. Put plainly: Induction of cytotoxicity (Assay 6), SUDHL5. The settings on record: read-out: Cytotox SUDHL5 [M] (median) IC50, CellTiter-Glo, 5 hours, SUDHL5.
Series [3] addresses MCL-1 (Homo sapiens (Human), UniProt Q07820, K194A/K197A/R201A). Put plainly: Protein-protein interaction assay MCL-1/Noxa BH3 peptide (MCL-1 assay, TR-FRET). It is filed as binding. The settings on record: MBP-MCL-1 / Noxa BH3 peptide, median. The method, then:
Protein-Protein Interaction Assay: MCL-1/Noxa BH3 Peptide (MCL-1 Assay)
The dose-dependent inhibition by the compounds described in this invention of the interaction between MCL-1 and the BH3 domain of Noxa (both human) was determined using a steady state binding competition assay with time-resolved fluorescence energy transfer (TR-FRET) readout. For that purpose MCL-1 (amino acids 173-329, N-terminal fused to Maltose Binding Protein (MBP) SEQ ID 1) and a synthetic Noxa BH3-derived peptide of sequence Biotin-PEG2-PEG2-PAELEVE-Nva-ATQLRRFGDKLNFRQKLL-amide (SEQ ID 2) served as protein receptor and tracer ligand respectively. The MBP-MCL-1 was purchased from Beryllium (Bedford, Mass., USA). The expression and purification of this protein construct has been described elsewhere (DOI:10.1371/journal.pone.0125010). The Noxa BH3-derived peptide can be obtained from e.g. Biosyntan (Berlin, Germany).
In the assay 11 different concentrations of each compound (0.1 nM, 0.33 nM, 1.1 nM, 3.8 nM, 13 nM, 44 nM, 0.15 μM, 0.51 μM, 1.7 μM, 5.9 μM and 20 μM) were typically measured as duplicates in the same microtiter plate. For that, 100-fold concentrated DMSO solutions were prepared by serial dilutions (1:3.4) of a 2 mM stock solution in a clear, 384-well microtiter plate (Greiner Bio-One, Frickenhausen, Germany). From there, 50 nl were transferred in a dark test plate (Greiner Bio-One, Frickenhausen, Germany). The assay was initiated by addition of 2 μl of a 2.5-fold concentrated MBP-MCL-1 solution (usually for a 1 nM end concentration in 5 μl reaction volume) in aqueous assay buffer [50 mM Tris/HCl pH 7, 100 mM sodium chloride (NaCl), 50 mM potassium fluoride (KF), 0.005% Tween-20, 2 mM DTT, 0.1% bovine gamma globulin (BGG)] to the compounds in the assay plate. This was followed by a 10-minute incubation step at 22° C. for pre-equilibration of the putative complex between MBP-MCL-1 and the compounds. After that, 3 μl of a 1.67-fold concentrated solution (in assay buffer) consisting of Noxa BH3-derived peptide (1 nM end concentration) and TR-FRET detection reagents [1.67 nM anti-MBP-Eu cryptate and 1.67 nM streptavidin-XL665 (both from Cisbio Bioassays, Codolet, France)], were added.
The mixture was incubated in the dark for one hour at 22° C. and then overnight at 4° C. The formation of MCL-1/Noxa complexes was determined by measuring the resonance energy transfer of the anti-MBP-Eu-cryptate antibody to the streptavidin-XL665 present in the reaction. For that purpose, the fluorescence emission at 620 nm and 665 nm after excitation at 330-350 nm was measured in a TR-FRET measuring instrument, for instance a Rubystar or a Pherastar (both from BMG Lab Technologies, Offenburg, Germany) or a Viewlux (Perkin-Elmer). The ratio of the emission at 665 nm and at 622 nm was used as indicator of the amount of MCL-1/NOXA complexes present.
The resulting data (ratio) were normalized, taking 0% inhibition as the mean value of control measurements (usually 32 data points) where all reagents were included. In this case 50 nl DMSO were used instead of compounds. A 100% inhibition corresponded to the mean value of control measurements (usually 32 data points) where all reagents except MCL-1 were included. IC50 values were determined by regression analysis based on a 4 parameter equation (minimum, maximum, IC50, Hill; Y=Max+(Min−Max)/(1+(X/IC50)^HiII) using the Screener Software (Genedata).

The subject of series [4] is SUDHL5. As to the kind of experiment: Induction of caspase-3/7 activity (Assay 4), SUDHL5. Type of series: cell-based. The settings on record: caspase-3/7 induction, median. As for the experimental part:
as §1, §2, §3, §4, §5

Series [5] relates to SUDHL10. Put plainly: Induction of cytotoxicity (Assay 6), SUDHL10. The settings on record: read-out: Cytotox SUDHL10 [M] (median) IC50, CellTiter-Glo, 5 hours, SUDHL10.
In series [6] the test system is HMC-1-8. Put plainly: Antiproliferation assay (Assay 7), HMC-1-8. It is filed as cell-based. The settings on record: CellTiter-Glo, 72 hours, several values per example, read-out: Antiproli HMC-1-8 [M] IC50. As for the experimental part:
(§6) Assessment of the Anti-Proliferative Effect of Compounds in Different Cell Lines
(§7) The impact of compounds on the proliferation of different cell lines was assessed using the CellTiter-Glo® Luminescent Cell Viability reagent from Promega (G7573).
(§8) In parallel, cells were plated in a reference (day 0) plate for time zero determination.
(§9) Rim wells were excluded. The cells were incubated for 72 hours in a humidified incubator at 37° C. The day 0 plate was measured by adding 30 μL/well of CTG solution (CellTiter-Glo® Luminescent Cell Viability reagent, Promega G7573) to time zero wells in the reference plate followed by a 10 minutes incubation and luminescence reading at 0.1 ms. using the PHERAstar FS microplate reader (BMG Labtech).
(§10) After 72 hours incubation, the treated plates were measured in the same way as the day 0 plate mentioned above.

For series [7], the system named is SUDHL5. As to the kind of experiment: Antiproliferation assay (Assay 7), SUDHL5. The settings on record: CellTiter-Glo, median, read-out: Antiproli SUDHL5 [M] (median) IC50. Type of series: cell-based. As for the experimental part: as §6, §7, §8, §9, §10
A general note: ATP-based viability assays read luminescence as a measure of living cells.

Series [8] has as its system AMO-1. Put plainly: Antiproliferation assay (Assay 7), AMO-1. Type of series: cell-based. The settings on record: CellTiter-Glo, several values per example, read-out: Antiproli AMO-1 [M] IC50. The method, then:
as §6, §7, §8, §9, §10

The test system of series [9] is MV-4-11. As to the kind of experiment: Antiproliferation assay (Assay 7), MV-4-11. Type of series: cell-based. The settings on record: Homo sapiens, MV4-11, 72 h, CellTiter-Glo, several values per example, read-out: Antiproli MV-4-11 [M] IC50. As for the experimental part:
as §6, §7, §8, §9, §10

The structures appear in SMILES notation. Counter-ions that a name gives are not always drawn. Like-named read-outs stand apart in the source and are kept apart here.

MCL-1, sequence (Q07820 whole entry K194A/K197A/R201A, looked up): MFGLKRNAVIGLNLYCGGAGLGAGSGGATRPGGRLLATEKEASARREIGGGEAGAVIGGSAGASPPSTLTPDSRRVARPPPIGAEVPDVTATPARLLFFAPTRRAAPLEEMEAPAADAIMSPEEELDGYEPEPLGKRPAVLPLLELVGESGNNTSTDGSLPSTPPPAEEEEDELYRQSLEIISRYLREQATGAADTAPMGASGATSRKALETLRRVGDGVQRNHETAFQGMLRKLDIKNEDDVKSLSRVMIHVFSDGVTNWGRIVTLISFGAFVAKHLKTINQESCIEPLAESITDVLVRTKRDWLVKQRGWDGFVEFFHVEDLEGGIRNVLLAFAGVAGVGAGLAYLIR

With `CCc1c2c(nn1C)C(N1CCOCC1)CCN(C)S(=O)(=O)CCCn1c(C(=O)O)c(CCCOc3cccc4cc(F)ccc34)c3ccc(Cl)c-2c31` (single isomer, unassigned; enantiomer 2) [Example 71, (−)-4-chloro-3-ethyl-7-{3-[(6-fluoro-1-naphthyl)oxy]propyl}-2,14-dimethyl-17-(morpholin-4-yl)-11,12,14,15,16,17-hexahydro-2H,10H-pyrazolo[3′,4′:6,7][1,2,10]thiadiazacyclotridecino[8,9,10-hi]indole-8-carboxylic acid 13,13-dioxide trifluoroacetate salt (Enantiomer 2)], the concentration giving a half-maximal response (EC50) in [1] (3 hours) amounted to 140 nM; in series [4] (3 hours), 71 nM. For the same compound, the 50% inhibitory concentration (IC50) stood at 1e-07 M in series [2]; 0.8 nM in [3]; 1.5e-07 M in [5]; 3.2e-06 M in series [6]; 1.3e-07 M in series [7] (72 hours).
Turning to `CCc1c2c(nn1C)CN(C)S(=O)(=O)CCCn1c(C(=O)O)c(CCCOc3cccc4cc(F)ccc34)c3ccc(Cl)c-2c31` (racemic) [Example 19, (rac)-13-Chloro-12-ethyl-1-(3-((6-fluoronaphthalen-1-yl)oxy)propyl)-8,11-dimethyl-5,6,9,11-tetrahydro-4H,8H-pyrazolo[3′,4′:4,5][1]thia[2,8]diazacycloundecino[6,7,8-hi]indole-2-carboxylic acid 7,7-dioxide], the half-maximal effective concentration (EC50) in series [1] (Homo sapiens, SU-DHL10, 3 h) was 610 nM; in [4] (Homo sapiens, SU-DHL-5, 3 h) it was 420 nM. Moreover, the 50% inhibitory concentration (IC50) in [2] (Homo sapiens, SU-DHL-5, 5 h) is 4.6e-07 M; in [3], 1.8 nM; in [8] (Homo sapiens, AMO1, 72 h) it was 1.5e-06 M; in series [9] it was 8.39e-07 M; in [5] (Homo sapiens, SU-DHL10, 5 h) it was 8.5e-07 M; in [7] (Homo sapiens, SU-DHL-5, 72 h) it was 3.1e-07 M.
On to `CCc1c2c(nn1C)CN(CC)S(=O)(=O)CCCn1c(C(=O)O)c(CCCOc3cccc4cc(F)ccc34)c3ccc(Cl)c-2c31` (single isomer, unassigned; enantiomer 2) [Example 58, (−)-4-chloro-3,14-diethyl-7-{3-[(6-fluoronaphthalen-1-yl)oxy]propyl}-2-methyl-13,13-dioxo-10,11,12,13,14,15-hexahydro-2H-13lambda^6-pyrazolo[3′,4′:4,5][1,2,8]thiadiazacycloundecino[6,7,8-hi]indole-8-carboxylic acid N-ethylethanamine Salt (Enantiomer 2)], for which the EC50 in series [1] (3 hours) is 32000 nM; in series [4] (3 hours), 15000 nM. Further, the IC50 is 1.2e-05 M in series [2]; 28 nM in [3]; over 3.3e-05 M in [8] (72 hours); 1.5e-05 M in series [6]; 1.5e-05 M in series [7] (72 hours).
Regarding `Cc1c2c(nn1C)CN(C)S(=O)(=O)CCCn1c(C(=O)O)c(CCCOc3cccc4ccccc34)c3cccc-2c31` (single isomer, unassigned; enantiomer 1) [Example 11, (+)-2,3,14-Trimethyl-7-[3-(1-naphthyloxy)propyl]-11,12,14,15-tetrahydro-2H,10H-pyrazolo[3′,4′:4,5][1,2,8]thiadiazacycloundecino[6,7,8-hi]indole-8-carboxylic acid 13,13-dioxide-N-ethylethanamine Salt (Enantiomer 1)], the concentration for half-maximal inhibition (IC50) in series [2] was found to be 1.6e-06 M; in series [5], 3.7e-06 M.
Consider `Cc1c2c(nn1C)CN(C)S(=O)(=O)CCCn1c(C(=O)O)c(CCCOc3cccc4ccccc34)c3cccc-2c31` (single isomer, unassigned; enantiomer 2) [Example 12, (−)-2,3,14-Trimethyl-7-[3-(1-naphthyloxy)propyl]-11,12,14,15-tetrahydro-2H,10H-pyrazolo[3′,4′:4,5][1,2,8]thiadiazacycloundecino[6,7,8-hi]indole-8-carboxylic acid 13,13-dioxide-N-ethylethanamine Salt (Enantiomer 2)], for which the IC50 in series [2] and in [5] was 2.7e-05 M throughout.
Regarding `CCc1c2c(nn1C)C(N1CCOCC1)CCN(C)S(=O)(=O)CCCn1c(C(=O)O)c(CCCOc3cccc4cc(F)ccc34)c3ccc(Cl)c-2c31` (racemic) [Example 69, (rac)-15-chloro-14-ethyl-1-(3-((6-fluoronaphthalen-1-yl)oxy)propyl)-8,13-dimethyl-11-(rac)-morpholino-5,6,9,10,11,13-hexahydro-4H,8H-pyrazolo[3′,4′:6,7][1]thia[2,10]diazacyclotridecino[8,9,10-hi]indole-2-carboxylic acid 7,7-dioxide (Mixture of Stereoisomers)], the EC50 turned out to be 650 nM in series [1] (Homo sapiens, SU-DHL10, 3 h) and 250 nM in [4] (Homo sapiens, SU-DHL-5, 3 h). In addition, the IC50 in [2] (Homo sapiens, SU-DHL-5, 5 h) amounted to 3.1e-07 M; in series [3], 1.5 nM; in [5] (Homo sapiens, SU-DHL10, 5 h), 1.3e-06 M.
